In patent US20100040679A1, “Compositions for Reducing Nicotine Withdrawal Symptoms and/or Tobacco Usage” (priority 2006, published 2010):

Experiments:
[1] = rat brain after peripheral nicotine administration; Dwoskin et al 1999; cited from earlier work
[2] = system: mecamylamine-precipitated nicotine withdrawal syndrome; test: previous study of mecamylamine-precipitated nicotine withdrawal syndrome; assay type: in vivo; conditions: dose 1 mg/kg, given alone
Experimental: (§1) All subjects were rendered nicotine dependent by seven days infusion with 9 mg/kg/day nicotine bitartrate (3.15 mg/kg expressed as the base) in saline from the subcutaneous minipump. On the 7th day of infusion, each subject received two subcutaneous injections. Group 1 (n=8) received two injections of saline vehicle only. Group 2 (n=7) received a subcutaneous injection of saline and an subcutaneous injection of 1 mg/kg cotinine in saline. Group 3 (n=8) received a subcutaneous injection of saline and a subcutaneous injection of 1 mg/kg dextromethorphan. Group 4 (n=7) received a subcutaneous injection of 1 mg/kg cotinine and 1 mg/kg dextromethorphan. […] These low doses were intended to prevent any ceiling effect which may have masked the benefit of adding a second medication. The injection volumes in every case were 1 mg/kg.

nicotine dependent rats = test: mecamylamine-precipitated nicotine abstinence signs in nicotine dependent rats; assay type: in vivo, Sprague-Dawley rats; conditions: 1 mg/kg subcutaneous; 30 minutes; FIG. 2
Experimental: A study was conducted to compare the effects of low doses of dextromethorphan (1 mg/kg) alone, cotinine (1 mg/kg) alone, and a dextromethorphan plus cotinine combination (1 mg/kg each) versus placebo (saline) for their effect on nicotine dependence. The subjects were 30 male Sprague-Dawley rats, weighing between 282-372 grams each. All subjects were implanted subcutaneously with an Alza 2ML1 osmotic minipump under aseptic conditions and halothane anesthesia.
as §1, with “[…]. […]” for “mg/kg.”

[3] = humans; estimated by Benowitz 1983; cited from earlier work

Row | SMILES | abundance as nicotine metabolite in brain [1] | effects in reducing mecamylamine-precipitated nicotine withdrawal syndrome [2] | Miscellaneous Less-Frequent Signs (category of nicotine abstinence signs) (nicotine dependent rats) | systemically absorbed nicotine metabolized to cotinine [3] [%]
1 | CN1C(=O)CC[C@H]1c1cccnc1 [cotinine] | most abundant metabolite in rat brain | only minimal effects | tied for lowest | –
2 | COc1ccc2c(c1)[C@]13CCCC[C@@H]1[C@H](C2)N(C)CC3 [dextromethorphan, reference compound] | – | only minimal effects | – | –
3 | CN1CCCC1c1cccnc1 (centres unmarked) [nicotine] | – | – | – | 86
